Legend:
[1] = system: Puccinia recondita f. Sp. Tritici; assay: Puccinia recondita f. sp. tritici / wheat / leaf disc preventative (brown rust); format: in vivo; conditions: foliar, 168 h, 200 ppm in the applied formulation, wheat leaf segments cv. Kanzler, preventative, inoculated 1 day after application, assessed 7 to 9 days after application, vs untreated, read-out: disease control
In short: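 Wheat cv. Kanzler leaf segments on agar were sprayed with formulated compound in water, then inoculated with spores 1 day later. Incubated at 19° C, 75% rh, 12 h light/12 h dark; percent disease control versus untreated scored 7 to 9 days after application.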

[2] = system: Phakopsora pachyrhizi; assay: Phakopsora pachyrhizi / soybean / leaf disc preventative (Asian soybean rust); format: in vivo; conditions: foliar, 288 h, 200 ppm in the applied formulation, soybean leaf disks, inoculated one day after application, assessed 12 to 14 days after application, vs untreated, read-out: disease control
Method: Leaf disks or leaf segments of various plant species are cut from plants grown in a greenhouse. The cut leaf disks or segments are placed in multiwell plates (24-well format) onto water agar. The leaf disks are sprayed with a test solution before (preventative) or after (curative) inoculation. Compounds to be tested are prepared as DMSO solutions (max. 10 mg/ml) which are diluted to the appropriate concentration with 0.025% Tween20 just before spraying. The inoculated leaf disks or segments are incubated under defined conditions (temperature, relative humidity, light, etc.) according to the respective test system. A single evaluation of disease level is carried out 3 to 14 days after inoculation, depending on the pathosystem. Percent disease control relative to the untreated check leaf disks or segments is then calculated.
Soybean leaf disks are placed on water agar in multiwell plates (24-well format) and sprayed with the formulated test compound diluted in water. One day after application leaf discs are inoculated by spraying a spore suspension on the lower leaf surface. After an incubation period in a climate cabinet of 24-36 hours in darkness at 20° C. and 75% rh leaf disc are kept at 20° C. with 12 h light/day and 75% rh. The activity of a compound is assessed as percent disease control compared to untreated when an appropriate level of disease damage appears in untreated check leaf disks (12 to 14 days after application).
The following compounds at 200 ppm in the applied formulation give at least 80% disease control in this test when compared to untreated control leaf disks under the same conditions, which show extensive disease development.

[3] = system: Glomerella Lagenarium (Colletotrichum Lagenarium); assay: Glomerella lagenarium (Colletotrichum lagenarium) liquid culture / cucumber / preventative (anthracnose); format: cell-based; conditions: Colletotrichum orbiculare; 20 ppm in the applied formulation; liquid culture in PDB, 24° C., inhibition of growth measured photometrically 3 to 4 days after application, vs untreated; read-out: disease control
In short: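 Conidia from cryogenic storage were mixed into potato dextrose broth. This was added to compound diluted from DMSO into 0.025% Tween20, tested at 20 ppm. Plates were incubated in the dark at 24 °C and 96% relative humidity, and growth was read photometrically after 2–7 days as % activity versus untreated check.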

[4] = system: Puccinia recondita f. Sp. Tritici; assay: Puccinia recondita f. sp. tritici / wheat / leaf disc curative (brown rust); format: in vivo; conditions: foliar, 144 h, 200 ppm in the applied formulation, wheat leaf segments cv. Kanzler, applied 1 day after inoculation, assessed 6 to 8 days after application, vs untreated, read-out: disease control
In short: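 Spray application came one day after spore inoculation of Kanzler wheat leaf segments kept on agar. Conditions: 19° C, 75% relative humidity, dark before treatment and 12 h light/12 h dark after. Efficacy = % disease control compared with untreated, 6–8 days post-application.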

FC(F)(F)c1nc(-c2ccc(Cn3ccnc3Br)cc2)no1 [Compound 1.49, 3-[4-[(2-bromoimidazol-1-yl)methyl]phenyl]-5-(trifluoromethyl)-1,2,4-oxadiazole]
≥ 80%: pest or weed control at 200 ppm [1] | pest or weed control at 200 ppm [2] | inhibition of growth at 20 ppm [3] | pest or weed control at 200 ppm [4]

CC(C)c1nccn1Cc1ccc(-c2noc(C(F)(F)F)n2)cc1 [Compound 1.56, 3-[4-[(2-isopropylimidazol-1-yl)methyl]phenyl]-5-(trifluoromethyl)-1,2,4-oxadiazole]
≥ 80%: pest or weed control at 200 ppm [1] | pest or weed control at 200 ppm [2] | inhibition of growth at 20 ppm [3] | pest or weed control at 200 ppm [4]

FC(F)(F)c1nc(-c2ccc(Cn3cnc(Br)c3)cc2)no1 [Compound 1.79, 3-[4-[(4-bromoimidazol-1-yl)methyl]phenyl]-5-(trifluoromethyl)-1,2,4-oxadiazole]
≥ 80%: pest or weed control at 200 ppm [1] | pest or weed control at 200 ppm [2] | inhibition of growth at 20 ppm [3] | pest or weed control at 200 ppm [4]

O=Cc1ccn(Cc2ccc(-c3noc(C(F)(F)F)n3)cc2)n1 [Compound 1.85, 1-[[4-[5-(trifluoromethyl)-1,2,4-oxadiazol-3-yl]phenyl]methyl]pyrazole-3-carbaldehyde]
≥ 80%: pest or weed control at 200 ppm [1] | pest or weed control at 200 ppm [2] | inhibition of growth at 20 ppm [3] | pest or weed control at 200 ppm [4]

FC(F)(F)c1nc(-c2ccc(Cn3cc4ccccc4n3)cc2)no1 [Compound 1.86, 3-[4-(indazol-2-ylmethyl)phenyl]-5-(trifluoromethyl)-1,2,4-oxadiazole]
≥ 80%: pest or weed control at 200 ppm [1] | pest or weed control at 200 ppm [2] | inhibition of growth at 20 ppm [3] | pest or weed control at 200 ppm [4]

FC(F)(F)c1nc(-c2ccc(Cn3ncc4ccccc43)cc2)no1 [Compound 1.87, 3-[4-(indazol-1-ylmethyl)phenyl]-5-(trifluoromethyl)-1,2,4-oxadiazole]
≥ 80%: pest or weed control at 200 ppm [1] | pest or weed control at 200 ppm [2] | inhibition of growth at 20 ppm [3] | pest or weed control at 200 ppm [4]

COC(=O)c1cn(Cc2ccc(-c3noc(C(F)(F)F)n3)cc2)cn1 [Compound 1.88, methyl 1-[[4-[5-(trifluoromethyl)-1,2,4-oxadiazol-3-yl]phenyl]methyl]imidazole-4-carboxylate]
≥ 80%: pest or weed control at 200 ppm [1] | pest or weed control at 200 ppm [2] | inhibition of growth at 20 ppm [3] | pest or weed control at 200 ppm [4]

FC(F)(F)c1cn(Cc2ccc(-c3noc(C(F)(F)F)n3)cc2)cn1 [Compound 1.90]
≥ 80%: pest or weed control at 200 ppm [1] | pest or weed control at 200 ppm [2] | inhibition of growth at 20 ppm [3] | pest or weed control at 200 ppm [4]

Cc1nc(Br)cn1Cc1ccc(-c2noc(C(F)(F)F)n2)cc1 [Compound 1.91, 3-[4-[(4-bromo-2-methyl-imidazol-1-yl)methyl]phenyl]-5-(trifluoromethyl)-1,2,4-oxadiazole]
≥ 80%: pest or weed control at 200 ppm [1] | pest or weed control at 200 ppm [2] | inhibition of growth at 20 ppm [3] | pest or weed control at 200 ppm [4]

Cc1cc(C#N)nn1Cc1ccc(-c2noc(C(F)(F)F)n2)cc1 [Compound 1.93, 5-methyl-1-[[4-[5-(trifluoromethyl)-1,2,4-oxadiazol-3-yl]phenyl]methyl]pyrazole-3-carbonitrile]
≥ 80%: pest or weed control at 200 ppm [1] | pest or weed control at 200 ppm [2] | inhibition of growth at 20 ppm [3] | pest or weed control at 200 ppm [4]

FC(F)(F)c1nc(-c2ccc(Cn3cnc(I)c3)cc2)no1 [Compound 1.96, 3-[4-[(4-iodoimidazol-1-yl)methyl]phenyl]-5-(trifluoromethyl)-1,2,4-oxadiazole]
≥ 80%: pest or weed control at 200 ppm [1] | pest or weed control at 200 ppm [2] | inhibition of growth at 20 ppm [3] | pest or weed control at 200 ppm [4]

Cc1cc(C)n(Cc2ccc(-c3noc(C(F)(F)F)n3)cc2F)n1 [Compound 1.102, 3-[4-[(3,5-dimethylpyrazol-1-yl)methyl]-3-fluoro-phenyl]-5-(trifluoromethyl)-1,2,4-oxadiazole]
≥ 80%: pest or weed control at 200 ppm [1] | pest or weed control at 200 ppm [2] | inhibition of growth at 20 ppm [3] | pest or weed control at 200 ppm [4]

Fc1cc(-c2noc(C(F)(F)F)n2)ccc1Cn1ccnc1 [Compound 1.129, 3-[3-fluoro-4-(imidazol-1-ylmethyl)phenyl]-5-(trifluoromethyl)-1,2,4-oxadiazole]
≥ 80%: pest or weed control at 200 ppm [1] | pest or weed control at 200 ppm [2] | inhibition of growth at 20 ppm [3] | pest or weed control at 200 ppm [4]

FC(F)(F)c1nc(-c2ccc(Cn3cnc(Br)c3)nc2)no1 [Compound 1.136, 3-[6-[(4-bromoimidazol-1-yl)methyl]-3-pyridyl]-5-(trifluoromethyl)-1,2,4-oxadiazole]
≥ 80%: pest or weed control at 200 ppm [1] | pest or weed control at 200 ppm [2] | inhibition of growth at 20 ppm [3] | pest or weed control at 200 ppm [4]

O=C(O)c1cnn(Cc2ccc(-c3noc(C(F)(F)F)n3)cc2)c1 [Compound 1.147, 1-[[4-[5-(trifluoromethyl)-1,2,4-oxadiazol-3-yl]phenyl]methyl]pyrazole-4-carboxylic acid]
≥ 80%: pest or weed control at 200 ppm [1] | pest or weed control at 200 ppm [2] | inhibition of growth at 20 ppm [3] | pest or weed control at 200 ppm [4]

O=Cc1cn(Cc2ccc(-c3noc(C(F)(F)F)n3)cc2)cn1 [Compound 1.151, 1-[[4-[5-(trifluoromethyl)-1,2,4-oxadiazol-3-yl]phenyl]methyl]imidazole-4-carbaldehyde]
≥ 80%: pest or weed control at 200 ppm [1] | pest or weed control at 200 ppm [2] | inhibition of growth at 20 ppm [3] | pest or weed control at 200 ppm [4]

N#Cc1cn(Cc2ccc(-c3noc(C(F)(F)F)n3)cc2)cn1 [Compound 1.154, 1-[[4-[5-(trifluoromethyl)-1,2,4-oxadiazol-3-yl]phenyl]methyl]imidazole-4-carbonitrile]
≥ 80%: pest or weed control at 200 ppm [1] | pest or weed control at 200 ppm [2] | inhibition of growth at 20 ppm [3] | pest or weed control at 200 ppm [4]

FC(F)Sc1nc(-c2ccc(Cl)cc2)cn1Cc1ccc(-c2noc(C(F)(F)F)n2)cc1 [Compound 1.174, 3-[4-[[4-(4-chlorophenyl)-2-(difluoromethyl-sulfanyl)imidazol-1-yl]methyl]phenyl]-5-(trifluoromethyl)-1,2,4-oxadiazole]
≥ 80%: pest or weed control at 200 ppm [1] | pest or weed control at 200 ppm [2] | inhibition of growth at 20 ppm [3] | pest or weed control at 200 ppm [4]

COC(=O)c1cccc2nn(Cc3ccc(-c4noc(C(F)(F)F)n4)cc3)cc12 [Compound 1.192, methyl 2-[[4-[5-(trifluoromethyl)-1,2,4-oxadiazol-3-yl]phenyl]methyl]indazole-4-carboxylate]
≥ 80%: pest or weed control at 200 ppm [1] | pest or weed control at 200 ppm [2] | inhibition of growth at 20 ppm [3] | pest or weed control at 200 ppm [4]

From patent US10798941B2, “Microbiocidal oxadiazole derivatives” (SYNGENTA PARTICIPATIONS AG, priority 2016, dated 2020)
